Test results published in patent US6274596A, “Benzoquinoline derivatives useful as antibacterial agents” (priority 1999, dated 2001).
In brackets after ≈: the same amount, converted by molar mass. Like-named read-outs stand apart in the source and are kept apart here.

What was measured:
E. coli (MCR106) [1] = assay: MBC, E. coli (MCR106); format: cell-based; conditions: minimum bactericidal concentration; for MBC: Escherichia coli, read-out: MBG
Procedure: (§1) The antimicrobial activity of a compound or formulation according to the invention is determined by exposing a culture comprising a bacterial species to different concentrations of the compound or formulation and monitoring the effects on growth relative to a control culture not exposed to the compound. Any method known in the art may be used to assess bacterial growth. Antimicrobial effects are expressed as Minimal Inhibitory Concentration (MIC) and Minimum Bactericidal Concentration (MBC).
(§2) The minimum bactericidal concentration (MBC) is defined as the concentration of antimicrobial agent from which no colonies grow on petri plates or in the medium. In practice, the MBC is arbitrarily defmed as the concentration at which a 1000-fold reduction in colony forming units is observed with respect to the original inoculum (survival of 0.1%). Typically, the wells from a MIC microliter plate using a 96-well inoculation grid into a fresh microliter plate containing 100 μL Mueller-Hinton broth per well. The MBC plates are incubated at 37° C. for 16-20 hrs and the MBC values are determined.
(§3) The antimicrobial activities of the compounds of the invention, expressed as MIC and MBC, were determined as described above, using as tester strains wild-type S. aureus, rifampicin-resistant S. aureus, wild-type E. coli, and E. coli cells that had been permeabilized.

S. Aureus [2] = assay: MBC, S. Aureus; format: cell-based; conditions: for MBC: Staphylococcus aureus, read-out: MBG
Procedure: as §1, §2, §3

S. Aureus (Rif-res) [3] = assay: MIC, broth microdilution, S. Aureus (Rif-res); format: cell-based
Procedure: as §1
(§4) The MIC is expressed as a range between the concentration at which no growth is observed and the concentration of the dilution which immediately follows.
(§5) Typically, MIC is measured using a broth microdilution assay as follows. Dilution of candidate antimicrobial compounds in culture medium is performed in a sterile, covered 96-well microtiter plate with flat bottom wells (Costar #9017). The final concentrations of the compounds are typically 100, 50, 25, 12.5, 6.25, 3.12, 1.56, 0.78, 0.39, 0.20, 0.10, and 0.05 μg/mL, respectively. Culture medium only (containing no bacteria) is also included as a negative control for each plate. Ampicillin and rifamnpin are used as positive controls against all bacterial strains in every experiment.
(§6) The overnight culture of a single colony is diluted in sterile medium so that, after inoculation, each well contains approximately 5×10^5CFU/mL. Within 15 minutes of preparation, […] of the adjusted inoculum suspension is added to the microliter plate. Each well is diluted with an equal volume of the antimicrobial compounds or control solution. The inoculated microtiter plate is typically incubated at 35° C. for 16-20 hours. The turbidity of each well is determined by measuring the absorbance at 595 nm using a BioRad Model 3550-UV microplate reader.
as §3

E. coli (BAS) [4] = assay: MBC, E. coli (BAS); format: cell-based; conditions: minimum bactericidal concentration; for MBC: Escherichia coli, read-out: MBG
Procedure: as §1, §2, §3

S. Aureus (Rif-res) [5] = assay: MBC, S. Aureus (Rif-res); format: cell-based; conditions: for MBC: Staphylococcus aureus, read-out: MBG
Procedure: as §1, §2, §3

E. coli (BAS) [6] = assay: MIC, broth microdilution, E. coli (BAS); format: cell-based
Procedure: as §1, §4, §5, §6, §3

S. Aureus [7] = assay: MIC, broth microdilution, S. Aureus; format: cell-based; conditions: for MIC: S. Aureus
Procedure: as §1, §4, §5, §6, §3

E. coli (MCR106) [8] = assay: MIC, broth microdilution, E. coli (MCR106); format: cell-based
Procedure: as §1, §4, §5, §6, §3

bacterial RNA polymerase = assay: in vitro transcription, bacterial versus human RNA polymerase; format: biochemical; conditions: in words; RNA polymerase from S. aureus, E. coli or human, pTaq promoter template
Text: The compounds useful for inclusion in the pharmaceutical formulations of the invention can be identified by their ability to bind to, and/or inhibit the activity of, one or more bacterial RNA polymerases. RNA polymerase as used herein refers to DNA-dependent RNA polymerase holoenzyme, which is a complex consisting of five protein subunits: two copies of the a subunit and one copy each of the β, β', and σ subunits. The α, β and β' subunits are invariant in a given bacterial species and together form core RNA polymerase.
RNA polymerase inhibition activity of a compound can be detected by including the compound in an in vitro transcription reaction and comparing the level of transcription that occurs in the presence and absence of the compound. […] After incubation for 60 minutes at 25° C., the reaction is terminated with 100 μl 10% TCA, which also precipitates the newly transcribed RNA, and incorporation of radioactivity into RNA is quantified. […]
It will be understood that useful antimicrobial compositions and formulations act selectively on microbial pathogens. […] That is, the inhibitory activity of a particular compound towards an animal RNA polymerase may be measured in parallel with a bacterial RNA polymerase. […]

[9] = Escherichia coli, read-out: MIC
[10] = Staphylococcus aureus, read-out: MIC

Row | Compound | MBC (E. coli (MCR106) [1]) [µg/mL] | MBC (S. Aureus [2]) [µg/mL] | MIC (S. Aureus (Rif-res) [3]; Staphylococcus aureus) [µg/mL] | MBC (E. coli (BAS) [4]) [µg/mL] | MBC (S. Aureus (Rif-res) [5]) [µg/mL] | MIC (E. coli (BAS) [6]; [9]) [µg/mL] | MIC (S. Aureus [7]; [10]) [µg/mL] | MIC (E. coli (MCR106) [8]; Escherichia coli) [µg/mL] | selectivity for bacterial RNA polymerase relative to human RNA polymerase (bacterial RNA polymerase) | antimicrobial activity against S. aureus (S. Aureus [7]; in words, MIC and MBC, compared with the other compounds) | antimicrobial activity against E. coli (E. coli (MCR106) [8]; in words, MIC and MBC, E. coli strain not named) | MBG (E. coli (MCR106) [1]) [µg/mL] | MBG (S. Aureus [2]; S. Aureus, minimum bactericidal concentration) [µg/mL] | MIC (S. Aureus (Rif-res) [3]; S. Aureus (Rif-res), rifampicin-resistant) [µg/mL] | MBG (E. coli (BAS) [4]) [µg/mL] | MBG (S. Aureus (Rif-res) [5]; S. Aureus (Rif-res), rifampicin-resistant, minimum bactericidal concentration) [µg/mL] | MIC (E. coli (BAS) [6]) [µg/mL] | MIC (S. Aureus [7]) [µg/mL] | MIC (E. coli (MCR106) [8]; E. coli (MCR106)) [µg/mL]
1 | CC(C)Nc1ccc(Nc2ccnc3cc4ccccc4cc23)cc1 [N^1-benzo[g]quinolin-4-yl-N^4-isopropyl-1,4,benzenediamine] | > 64 | 8 (≈ 24.4 µM) | 32 (≈ 97.7 µM) | > 64 | 32 (≈ 97.7 µM) | > 64 | 8 (≈ 24.4 µM) | > 64 |  |  |  |  |  |  |  |  |  |  | 
2 | c1ccc2cc3c(Nc4ccc(N5CCCCCC5)cc4)ccnc3cc2c1 [N-[4-(1-azepanyl)phenyl]benzo[g]quinolin-4-amine] | > 64 | 2 (≈ 5.44 µM) | 1 (≈ 2.72 µM) | > 64 | 1 (≈ 2.72 µM) | > 64 | 2 (≈ 5.44 µM) | > 64 |  |  |  |  |  |  |  |  |  |  | 
3 | c1ccc2cc3c(Nc4ccc(N5CCCCC5)cc4)ccnc3cc2c1 [N-[4-(1-piperidinyl)phenyl]benzo[g]quinolin-4-amine] | > 64 | 4 (≈ 11.3 µM) | 2 (≈ 5.66 µM) | 2 (≈ 5.66 µM) | 2 (≈ 5.66 µM) | 2 (≈ 5.66 µM) | 2 (≈ 5.66 µM) | > 64 | highest degree of selectivity for bacterial RNA polymerases | most potent antimicrobial activity against s. aureus | less effective against E. coli |  |  |  |  |  |  |  | 
4 | CCN1CCC(c2ccc(Nc3ccnc4cc5ccccc5cc34)cc2)CC1 [N-[4-(1-ethyl-4-piperidyl)phenyl]benzo[g]quinolin-4-amine] | 32 (≈ 83.9 µM) | 64 (≈ 168 µM) | 32 (≈ 83.9 µM) | 32 (≈ 83.9 µM) | 32 (≈ 83.9 µM) | 32 (≈ 83.9 µM) | 64 (≈ 168 µM) |  |  |  |  |  |  |  |  |  |  |  | 
5 | CCCCC(C)Nc1ccnc2cc3ccccc3cc12 (centres unmarked) [N-(1-methylpentyl)benzo[g]quinolin-4-amine] | > 64 | 16 (≈ 57.5 µM) | 8 (≈ 28.7 µM) | 16 (≈ 57.5 µM) | 16 (≈ 57.5 µM) | 8 (≈ 28.7 µM) | 16 (≈ 57.5 µM) | > 64 |  |  |  |  |  |  |  |  |  |  | 
6 | C#CCCN1CCN(c2ccc(Nc3ccnc4cc5ccccc5cc34)cc2)CC1 [N-{4-[4-(3-butynyl)-1-piperazinyl]phenyl}benzo[g]quinolin-4-amine] | > 64 | 16 (≈ 39.4 µM) | 16 (≈ 39.4 µM) | > 64 | 16 (≈ 39.4 µM) | > 64 | 16 (≈ 39.4 µM) | > 64 |  |  |  |  |  |  |  |  |  |  | 
7 | N-{5-benzo[g]quinolin-4-yl-3-[(diethylamino)methyl]-2-methylbenzyl}-N-ethyl-1-ethanamine |  |  |  |  |  |  |  |  |  |  |  | > 64 | 64 | 32 | 16 | 64 | 16 | 64 | 64
8 | CCN(CC)CCNc1ccc(Nc2ccnc3cc4ccccc4cc23)cc1 [N^1-benzo[g]quinolin-4-yl-N^4-[2-(diethylamino)ethyl]-1,4-benzenediamine] | 16 (≈ 41.6 µM) | 16 (≈ 41.6 µM) | 8 (≈ 20.8 µM) | 16 (≈ 41.6 µM) | 8 (≈ 20.8 µM) | 4 (≈ 10.4 µM) | 16 (≈ 41.6 µM) | 8 (≈ 20.8 µM) |  |  |  |  |  |  |  |  |  |  | 
9 | OCCCN1CCN(c2ccc(Nc3ccnc4cc5ccccc5cc34)cc2)CC1 [3{4-[4-(benzo[g]quinolin-4-yl-amino)phenyl]-1-piperazinyl}-1-propanol] | 64 (≈ 155 µM) | 32 (≈ 77.6 µM) | 8 (≈ 19.4 µM) | 8 (≈ 19.4 µM) | 8 (≈ 19.4 µM) | 8 (≈ 19.4 µM) | 32 (≈ 77.6 µM) | 16 (≈ 38.8 µM) |  |  |  |  |  |  |  |  |  |  | 
